Experiments:
PI3Kγ (p120γ) = biological target: T1, PI3Kγ (p120γ) (Homo sapiens, UniProt P48736); assay: Inhibition of PI3K kinase activity (ADP Glo), PI3Kγ; conditions: Table 1, p120γ, read-out: biochemical potency (PI3Kγ IC50)
T1 construct: purchased Promega V1761
Protocol: Compounds were evaluated to determine the potency with which they inhibited the kinase activity of the Class I PI3K subunits p110α/p85α (Promega, Cat #V1721), p110β/p85α (Promega, Cat #V1751), p120γ (Promega, Cat #V1761) and p110δ/p85α (Promega, Cat #V1771). Activity was determined as a function of ADP (adenosine diphosphate) generated from ATP consumed during the phosphorylation of Phosphatidylinositol 4,5-bisphosphate (PIP2) (Promega, Cat #V1701) to yield Phosphatidylinositol (3,4,5)-trisphosphate (PIP3). ADP levels in the assay mixture at the end of the reaction were quantitated using ADP Glo (Promega, Cat #V9103) according to the manufacturer's recommended protocol.
Enzyme was prepared for each of the PI3K subunits in 100 mM HEPES, pH 7.4, 100 mM NaCl, 6 mM MgCl2 and 0.05% BSA. p110α/p85α was prepared at 2 nM (2×), p110β/p85α was prepared at 7 nM (2×), p120γ was prepared at 8 nM (2×) and p110δ/p85α was prepared at 2 nM (2×). Five microliters of 2× enzyme dilution of each PI3K subunit were added to a 384-well white Opti-plates pre-dispensed with compound and allowed to incubate for 1 h at rt. A substrate mix containing 0.1 mg/ml (2×) of PIP2 and 50 μM (2×) ATP (Promega, Cat #V915) was prepared in 25 mM HEPES and 0.5 mM EGTA. Reactions were initiated by addition of 5 μl of 2× substrate mix to each well of the plates containing various PI3K isoforms and allowed to proceed for 60 min at rt. Ten microliters of ADP Glo reagent 1 were added to the wells of each plate and allowed to incubate at rt for 45 min according to the manufacturer's directions. Following incubation, 20 μl of ADP Glo reagent 2 was added to each plate and allowed to incubate for an additional 45 min. Luminescent signal, generated by ADP Glo, was quantified by reading on a Perkin Elmer Envision multimode reader. Compound potencies (IC50's) were determined using a standard 4-parameter fit non-linear regression fit.

PI3Kγ = biological target: T2, PI3Kγ (Homo sapiens, UniProt P48736); assay: PI3Kγ cellular assay in THP-1 cells (AKT pS473 AlphaLISA); type: cell-based; conditions: Table 1, rhMCP-1 stimulated AKT pS473, read-out: cellular potency (PI3Kγ IC50)
T2 construct: host or cells: THP-1
Protocol: Twenty microliters of serum starved THP-1 cells were added to the compound plate in serum free DMEM at a density of 9×10^6 cells per ml. Final assay conditions comprised 1.8×10^5 THP-1 cells per well with test compounds in 2% DMSO across a concentration range from 4 nM to 30 μM. […] Briefly, 10 μL of 4× lysis buffer was added to cells after stimulation. Following 60 min incubation at rt, 10 μL of cell lysate was transferred to a fresh 384-well Opti-plate to which 5 μL of AlphaLisa acceptor beads and 5 μL of AlphaLisa donor beads had been added. […] PI3Kγ activity was evaluated as a correlate of endogenous AKT phosphorylation levels. Percentage maximum activity in each test well was calculated based on DMSO (100% activity) and positive control treated cell wells (0% activity). The potencies (IC50's) of test compounds were determined using a standard 4-parameter fit non-linear regression fit.

T1 sequence (P48736 whole entry): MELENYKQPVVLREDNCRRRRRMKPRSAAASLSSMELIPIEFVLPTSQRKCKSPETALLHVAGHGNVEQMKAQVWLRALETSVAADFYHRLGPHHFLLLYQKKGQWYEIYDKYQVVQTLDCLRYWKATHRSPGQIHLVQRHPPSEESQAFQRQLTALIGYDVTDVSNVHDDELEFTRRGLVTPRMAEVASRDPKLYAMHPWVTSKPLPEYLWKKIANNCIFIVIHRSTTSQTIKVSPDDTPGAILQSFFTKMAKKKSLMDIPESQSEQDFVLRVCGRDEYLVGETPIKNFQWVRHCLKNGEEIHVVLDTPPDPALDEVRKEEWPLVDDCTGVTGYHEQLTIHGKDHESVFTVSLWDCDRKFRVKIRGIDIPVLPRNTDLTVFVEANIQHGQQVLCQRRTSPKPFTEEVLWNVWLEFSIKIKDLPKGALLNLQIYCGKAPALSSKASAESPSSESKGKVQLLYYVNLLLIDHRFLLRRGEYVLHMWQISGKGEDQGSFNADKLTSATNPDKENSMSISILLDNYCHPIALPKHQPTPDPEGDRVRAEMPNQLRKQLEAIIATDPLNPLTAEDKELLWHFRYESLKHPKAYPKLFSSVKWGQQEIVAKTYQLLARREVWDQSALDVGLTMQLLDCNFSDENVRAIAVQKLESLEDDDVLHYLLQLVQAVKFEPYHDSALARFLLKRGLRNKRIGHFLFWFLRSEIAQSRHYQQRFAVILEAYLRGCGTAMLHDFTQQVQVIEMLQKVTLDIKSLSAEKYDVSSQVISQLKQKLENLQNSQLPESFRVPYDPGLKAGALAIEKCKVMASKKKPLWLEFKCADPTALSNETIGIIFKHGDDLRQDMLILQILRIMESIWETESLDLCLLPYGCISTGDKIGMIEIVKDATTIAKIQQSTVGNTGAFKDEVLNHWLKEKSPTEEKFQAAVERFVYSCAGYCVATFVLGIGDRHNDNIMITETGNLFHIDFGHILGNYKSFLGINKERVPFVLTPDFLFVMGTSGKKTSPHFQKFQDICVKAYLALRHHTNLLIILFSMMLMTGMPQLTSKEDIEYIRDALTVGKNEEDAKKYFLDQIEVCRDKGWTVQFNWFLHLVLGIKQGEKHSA
T2 sequence (P48736 whole entry): as above

SMILES	IC50 (PI3Kγ (p120γ)) [nM]	IC50 (PI3Kγ) [nM]
C[C@@H](C1CC1)N1Cc2cc(-c3ccn4nc(N)c(C(=O)N[C@@H]5CC[C@@H](O)C5)c4n3)cc(OC(F)(F)F)c2C1=O [Example 37, 2-Amino-5-{2-[(1S)-1-cyclopropylethyl]-1-oxo-7-(trifluoromethoxy)-2,3-dihydro-1H-isoindol-5-yl}-N-[(1R,3R)-3-hydroxycyclopentyl]pyrazolo[1,5-a]pyrimidine-3-carboxamide]	< 100	< 100
C[C@@H](C1CC1)N1Cc2cc(-c3ccn4nc(N)c(C(=O)N[C@@H]5COC[C@H]5O)c4n3)cc(OC(F)(F)F)c2C1=O [Example 38, 2-Amino-5-{2-[(1S)-1-cyclopropylethyl]-1-oxo-7-(trifluoromethoxy)-2,3-dihydro-1H-isoindol-5-yl}-N-[(3R,4S)-4-hydroxyoxolan-3-yl]pyrazolo[1,5-a]pyrimidine-3-carboxamide]	< 100	< 100
C[C@@H](C1CC1)N1Cc2cc(-c3ccn4nc(N)c(C(N)=O)c4n3)cc(OC(F)(F)F)c2C1=O [Example 39, 5-{2-[(S)-1-Cyclopropylethyl]-7-trifluoromethoxy-5-isoindolinoyl}-2-amino-1,4,7a-triaza-3-indenecarboxamide]	< 100	< 100
C[C@@H](C1CC1)N1Cc2cc(-c3ccn4nc(N)c(C(=O)Nc5ccncc5)c4n3)cc(OC(F)(F)F)c2C1=O [Example 40, (S)-2-Amino-5-(2-(1-cyclopropylethyl)-1-oxo-7-(trifluoromethoxy)isoindolin-5-yl)-N-(pyridin-4-yl)pyrazolo[1,5-a]pyrimidine-3-carboxamide]	< 100	< 100
C[C@@H](C1CC1)N1Cc2cc(-c3ccn4nc(N)c(C(=O)Nc5cccnc5)c4n3)cc(OC(F)(F)F)c2C1=O [Example 41, (S)-2-Amino-5-(2-(1-cyclopropylethyl)-1-oxo-7-(trifluoromethoxy)isoindolin-5-yl)-N-(pyridin-3-yl)pyrazolo[1,5-a]pyrimidine-3-carboxamide]	< 100	< 100
C[C@@H](C1CC1)N1Cc2cc(-c3ccn4nc(N)c(C(=O)Nc5cncc(F)c5)c4n3)cc(OC(F)(F)F)c2C1=O [Example 42, 2-Amino-5-{2-[(1S)-1-cyclopropylethyl]-1-oxo-7-(trifluoromethoxy)-2,3-dihydro-1H-isoindol-5-yl}-N-(5-fluoropyridin-3-yl)pyrazolo[1,5-a]pyrimidine-3-carboxamide]	< 100	< 100
COc1cncc(NC(=O)c2c(N)nn3ccc(-c4cc5c(c(OC(F)(F)F)c4)C(=O)N([C@@H](C)C4CC4)C5)nc23)c1 [Example 43, 2-Amino-5-{2-[(1S)-1-cyclopropylethyl]-1-oxo-7-(trifluoromethoxy)-2,3-dihydro-1H-isoindol-5-yl}-N-(5-methoxypyridin-3-yl)pyrazolo[1,5-a]pyrimidine-3-carboxamide]	< 100	< 100
Cc1ncccc1NC(=O)c1c(N)nn2ccc(-c3cc4c(c(OC(F)(F)F)c3)C(=O)N([C@@H](C)C3CC3)C4)nc12 [Example 44, 2-[(S)-1-Cyclopropylethyl]-5-{2-amino-3-[(2-methyl-3-pyridylamino)carbonyl]-1,4,7a-triaza-5-indenyl}-7-trifluoromethoxy-1-isoindolinone]	< 100	< 100
Cc1ccc(NC(=O)c2c(N)nn3ccc(-c4cc5c(c(OC(F)(F)F)c4)C(=O)N([C@@H](C)C4CC4)C5)nc23)cn1 [Example 45, 2-[(S)-1-Cyclopropylethyl]-5-{2-amino-3-[(6-methyl-3-pyridylamino)carbonyl]-1,4,7a-triaza-5-indenyl}-7-trifluoromethoxy-1-isoindolinone]	< 100	< 100
C[C@@H](C1CC1)N1Cc2cc(-c3ccn4nc(N)c(C(=O)Nc5ccc(N)nc5)c4n3)cc(OC(F)(F)F)c2C1=O [Example 46, 2-[(S)-1-Cyclopropylethyl]-5-{2-amino-3-[(6-amino-3-pyridylamino)carbonyl]-1,4,7a-triaza-5-indenyl}-7-trifluoromethoxy-1-isoindolinone]	< 100	< 100
Cc1ccncc1NC(=O)c1c(N)nn2ccc(-c3cc4c(c(OC(F)(F)F)c3)C(=O)N([C@@H](C)C3CC3)C4)nc12 [Example 47, (S)-2-Amino-5-(2-(1-cyclopropylethyl)-1-oxo-7-(trifluoromethoxy)isoindolin-5-yl)-N-(4-methylpyridin-3-yl)pyrazolo[1,5-a]pyrimidine-3-carboxamide]	< 100	< 100
COc1ccncc1NC(=O)c1c(N)nn2ccc(-c3cc4c(c(OC(F)(F)F)c3)C(=O)N([C@@H](C)C3CC3)C4)nc12 [Example 48, (S)-2-Amino-5-(2-(1-cyclopropylethyl)-1-oxo-7-(trifluoromethoxy)isoindolin-5-yl)-N-(4-methoxypyridin-3-yl)pyrazolo[1,5-a]pyrimidine-3-carboxamide]	< 100	< 100
C[C@@H](C1CC1)N1Cc2cc(-c3ccn4nc(N)c(C(=O)N[C@H]5CCNC5=O)c4n3)cc(C(F)(F)F)c2C1=O [Example 49, 2-Amino-5-{2-[(1S)-1-cyclopropylethyl]-1-oxo-7-(trifluoromethyl)-2,3-dihydro-1H-isoindol-5-yl}-N-[(3S)-2-oxopyrrolidin-3-yl]pyrazolo[1,5-a]pyrimidine-3-carboxamide]	< 100	< 100
C[C@H](CO)NC(=O)c1c(N)nn2ccc(-c3cc4c(c(C(F)(F)F)c3)C(=O)N([C@@H](C)C3CC3)C4)nc12 [Example 50, 5-(3-{[(R)-2-Hydroxy-1-methylethylamino]carbonyl}-2-amino-1,4,7a-triaza-5-indenyl)-2-[(S)-1-cyclopropylethyl]-7-(trifluoromethyl)-1-isoindolinone]	< 100	< 100
C[C@@H](C1CC1)N1Cc2cc(-c3ccn4nc(N)c(C(=O)NCCO)c4n3)cc(C(F)(F)F)c2C1=O [Example 51, 2-[(S)-1-Cyclopropylethyl]-5-{2-amino-3-[(2-hydroxyethylamino)carbonyl]-1,4,7a-triaza-5-indenyl}-7-(trifluoromethyl)-1-isoindolinone]	< 100	< 100
C[C@@H](C1CC1)N1Cc2cc(-c3ccn4nc(N)c(C(=O)NCCCO)c4n3)cc(C(F)(F)F)c2C1=O [Example 52, 2-[(S)-1-Cyclopropylethyl]-5-{2-amino-3-[(3-hydroxypropylamino)carbonyl]-1,4,7a-triaza-5-indenyl}-7-(trifluoromethyl)-1-isoindolinone]	< 100	< 100
C[C@@H](C1CC1)N1Cc2cc(-c3ccn4nc(N)c(C(=O)NC5COC5)c4n3)cc(C(F)(F)F)c2C1=O [Example 53, 2-[(S)-1-Cyclopropylethyl]-5-{2-amino-3-[(3-oxetanylamino)carbonyl]-1,4,7a-triaza-5-indenyl}-7-(trifluoromethyl)-1-isoindolinone]	< 100	< 100
C[C@@H](C1CC1)N1Cc2cc(-c3ccn4nc(N)c(C(=O)N[C@H]5CC[C@@](C)(O)CC5)c4n3)cc(C(F)(F)F)c2C1=O [Example 54, 2-[(S)-1-Cyclopropylethyl]-5-{2-amino-3-[(cis-4-hydroxy-4-methylcyclohexylamino)carbonyl]-1,4,7a-triaza-5-indenyl}-7-(trifluoromethyl)-1-isoindolinone]	< 100	< 100
C[C@@H](C1CC1)N1Cc2cc(-c3ccn4nc(N)c(C(=O)N[C@H]5CC[C@](O)(C(F)(F)F)CC5)c4n3)cc(C(F)(F)F)c2C1=O [Example 55, 2-[(S)-1-Cyclopropylethyl]-5-(2-amino-3-{[cis-4-hydroxy-4-(trifluoromethyl)cyclohexylamino]carbonyl}-1,4,7a-triaza-5-indenyl)-7-(trifluoromethyl)-1-isoindolinone]	< 100	< 100

Reference: patent publication US20230024302A1, “2,3,5-TRISUBSTITUTED PYRAZOLO[1,5-A]PYRIMIDINE COMPOUNDS” (Arcus Biosciences, Inc., priority 2019, published 2023)
